In patent US11931332B2, “Phenyl alkyl carbamate compounds for use in preventing or treating neurodegenerative disease” (priority 2020, dated 2024):

Experiments:
[1] = tested on: rotenone-induced Parkinson's disease model mice; assay: Pole test in rotenone-induced Parkinson's disease model mice; assay type: in vivo, C57BL/6 mice; details: rotenone 30 mg/kg orally, Example 124 40 mg/kg IP once a day for 35 days; vs rotenone group; not significantly; FIG. 1(B-C)
Protocol: (§1) C57BL/6 mice (n=61) were purchased from Samtako bio korea Co. Ltd (Osan, Korea.) Mice were housed in the room which offers 12 hours light/dark cycle with a temperature of 20˜22° C.
(§2) Mice were randomly divided into four groups: • Group 1: vehicle control mice, • Group 2: Compound of Example 124—treated mice, • Group 3: rotenone treated mice, • Group 4: Compound of Example 124—rotenone treated mice.
(§3) Rotenone was suspended in 0.5% Carboxymethyl cellulose (CMC) sodium salt. Compound of Example 124 were dissolved in Tween 80. 0.5% CMC and Rotenone (30 mg/kg) were administered orally, the compound of Example 124 (40 mg/kg) was injected intraperitoneally (IP) once a day for 35 days (5 weeks).
(§4) In the present invention, in order to confirm whether the compound of Example 124 (compound 124) improves the motor abnormalities found in rotenone-induced Parkinson's disease model mice, rota-rod test, pole test, and foot printing assay test were performed.
Pole test was performed using the Parkinson's disease model mice of Biological Experiment Example 1 as follows. […] Each trial was recorded through the camera locating in front of the pole. The time mice turned upside down (head down) and the time it completely climbs down the pole was measured through a recorded video file manually by using the software Boris. Results from manually counted files were scored and presented.

[2] = tested on: rotenone-induced Parkinson's disease model mice; assay: Foot printing assay (stride length) in rotenone-induced Parkinson's disease model mice; assay type: in vivo, C57BL/6 mice; details: rotenone 30 mg/kg orally, Example 124 40 mg/kg IP once a day for 35 days
Protocol: as §1, §2, §3, §4
Foot printing assay was performed using the Parkinson's disease model mice of Biological Experiment Example 1 as follows. Mice paws were dipped with non-toxic water paints (forelimbs in green and hind limbs in blue). Mice were placed in the corner of the enclosed maze with white paper lined through the maze and allowed to walk along the maze freely. […] Fore limb-stride length and hind limb-stride length were measured using ImageJ (NIH).

[3] = tested on: TH+ neurons (dopaminergic neurons); assay: Immunohistochemistry with tyrosine hydroxylase (TH) antibody, counting of TH+ neurons in rotenone mice; assay type: in vivo, C57BL/6 mice; details: rotenone 30 mg/kg orally, Example 124 40 mg/kg IP once a day for 35 days, FIG. 3(A-B)
Protocol: as §2, §3
Dopaminergic neuron loss has been implicated in motor dysfunction in Parkinson's disease. In the present invention, stained the striatum with Tyrosine hydroxylase (TH) antibody to check out whether compound of Example 124 prevents the TH+ neuron cell death by rotenone.
(§5) Specifically, mice of Biological Experiment Example 1 were anesthetized with sevoflurane and perfused with PBS (phosphate-buffered saline). […]
All the images were taken using a fluorescence microscope (Leica DM LB2). To determine the loss of TH positive neurons and the prevention effect of the compound of Example 124 in the striatum, TH+ neurons were counted by using a cell counter plugin from ImageJ software (NIH).
Immunofluorescence images were analyzed using one-way ANOVA and post hoc analysis using Tukey's post hoc test (GraphPad Prism). […]

[4] = tested on: Tyrosine hydroxylase (TH); assay: Western blotting of tyrosine hydroxylase (TH) in ventral midbrain protein of rotenone mice; assay type: in vivo, C57BL/6 mice; details: rotenone 30 mg/kg orally, Example 124 40 mg/kg IP once a day for 35 days, FIG. 3(C-D)
Protocol: as §2, §3
(§6) Whole ventral midbrain was homogenized with RIPA buffer containing 1% Triton X 100, 0.5% deoxycholic acid, 0.2% SDS, 150 mM NaCl, 2 mM EDTA, protease inhibitors (PMSF, Aprotinin, NaF, Na3VO4). The homogenate was centrifuged at 13,000 rpm for 30 min on a rotator and the supernatant was used [Vergara, C., et al., Amyloid-beta pathology enhances pathological fibrillary tau seeding induced by Alzheimer PHF in vivo. Acta Neuropathol, 2019. 137(3): p. 397-412.]. Proteins were separated using SDS-PAGE with a concentration gradient of 8-20% SDS gels and transferred onto PVDF membranes (Immobilon P membrane, Millipore). Membranes blocked in 5% skim milk in TBST (Tris-Buffered saline-Tween®20) and immunolabeled with primary antibody, rabbit anti-tyrosine hydroxylase (TH) antibody (1:5000)). […]
(§7) Western blot data were analyzed using a t-test(1-tailed t-test). […]

[5] = tested on: phosphorylated tau (p-Tau s262); assay: Western blotting of phosphorylated tau (p-Tau s262) in rotenone mice; assay type: in vivo, C57BL/6 mice; details: Example 124-rotenone-treated group vs rotenone-vehicle group; not significantly; FIG. 4
Protocol: as §2, §3, §6, §7

[6] = tested on: Acetylated alpha-tubulin (Ace-α-tubulin); assay: Western blotting of acetylated alpha-tubulin in rotenone mice; assay type: in vivo, C57BL/6 mice; details: Example 124-rotenone-treated group; differences between groups not significant; FIG. 4
Protocol: as §2, §3, §6, §7

[7] = tested on: Phosphorylated alpha-synuclein (s129); assay: Double immunostaining for TH and p-α-synuclein, inclusions in cell bodies of TH+ neurons of rotenone mice; assay type: in vivo, C57BL/6 mice; details: rotenone 30 mg/kg orally, Example 124 40 mg/kg IP once a day for 35 days; FIG. 5(A-B)
Protocol: as §2, §3
Specifically, mice of Biological Experiment Example 1 were anesthetized with sevoflurane and perfused with PBS (phosphate-buffered saline). After perfusion, dissected the left hemisphere of the brain from the mice and fixed the right hemisphere brain with 4% PFA for 1 day [Shin, S. J., et al., Jowiseungchungtang Inhibits Amyloid-beta Aggregation and Amyloid-beta-Mediated Pathology in 5XFADMice. Int J Mol Sci, 2018. 19(12).]. The frozen brain was sectioned in the coronal way (30 μm thick) using a cryostat (Leica CM3000, Leica Microsystems, Nussloch, Germany). Sections were stored at deep freezer (−70° C.) until the immunohistochemistry analysis starts.
In all immunofluorescence labeling procedures, rinsed off the brain sections and blocked the tissues with cold PBST (0.1% Triton X-100 in PBS) containing 5% BSA and 5% goat serum at room temperature. […]

GFAP-positive astrocytes = assay: GFAP immunohistochemistry, activation level of astrocytes in striatum of rotenone mice; assay type: in vivo, C57BL/6 mice; details: rotenone 30 mg/kg orally, Example 124 40 mg/kg IP once a day for 35 days, FIG. 6
Protocol: as §2, §3, §5
(§8) To determine whether the compound of Example 124 affects regulating the activities of Rotenone-induced reactive astrocyte and microglia, in the present invention, obtained images of brain tissues stained with GFAP (Astrocyte marker) and Iba-1(microglia marker) antibodies. Through acquired images analyzed the activation level of astrocytes and microglia respectively by measuring fluorescent intensity. […]
(§9) All the images were taken using a fluorescence microscope (Leica DM LB2). […] The signal intensity of GFAP and Iba-1 was measured in the chosen fields of the equal area using Image J.

Iba-1-positive microglia = assay: Iba-1 immunohistochemistry, activation level of microglia in striatum of rotenone mice; assay type: in vivo, C57BL/6 mice
Protocol: as §2, §3, §5, §8, §9

[8] = tested on: Amyloid-beta precursor protein (APP); assay: Western blot of APP in Alzheimer's disease in vitro model (SH-SY5Y cells transfected with pcDNA3-APPswe); assay type: cell-based, human; details: Example 124 100 uM, harvested 24 h after treatment, FIG. 7
Protocol: In the present invention, the amyloid-beta precursor protein (APP) reduction effect of the compound of Example 124 in an In Vitro model of Alzheimer's disease (AD) was confirmed.
SH-SY5Y, a human neuroblastoma cell line, was used, and when the pcDNA3-APPswe vector was transfected, these cells generate an AD-inducing APP.
SH-SY5Y cells were incubated in DMEM with 10% FBS and 1% penicillin/streptomycin. 500,000 cells/well was plated in a 6 well plate and transfected 24 h later.
Cells were transfected with pcDNA3-APPswe or pcDNA3 vectors using Lipofectamine 2000 (Invitrogen). After 4 h incubation, the transfection mixture (Lipofectamine+Vector) was replaced with 10% FBS in DMEM. compound of Example 124 (100 uM) or vehicle was treated in 20 h after transfection.
Cells were harvested 24 h after the compound of Example 124 treatments. Cells were washed twice with ice-cold PBS and lysed in RIPA buffer (1% Triton X-100, 0.5% deoxycholic acid, 0.2% SDS, 150 mM sodium chloride, 2 mM EDTA) with 1 mM PMSF, 2 ug/ml aprotinin, 10 ug/ml leupeptin, and 10 mM sodium fluoride.
The lysate was passed several times through a 26½-gauge syringe needle and centrifuged at 16,200*g for 20 min. The supernatant was quantified with the Bradford assay. 30 ug of protein samples, separated by SDS-PAGE, were transferred to the PVDF membrane. […]

Amyloid-beta (Aβ) [9] = assay: Immunofluorescence of amyloid-beta in primary cultured cortical neurons; assay type: cell-based; details: primary cortical neurons treated with amyloid-beta and Example 124 (4 uM) together; FIG. 8
Protocol: Primary cortical neurons were harvested from the E12-14 embryo. Briefly, isolated cortices were incubated for 20 min at 37° C. in HBSS with 0.25% trypsin-EDTA, 0.1% DNase I. The cortices were dissociated by trituration in NBA media (Neurobasal medium with 2% B27, 2 mM 1-glutamine, and 1% penicillin/streptomycin). Cells were plated in poly-D-lysine coated 24-well plates at 50,000 cells/well. After 3 days of culture, Amyloid-beta and compound of Example 124 (4 uM) were treated.
Cortical neurons were fixed for 15 min at room temperature with 4% paraformaldehyde and 4% sucrose in PBS solution. Fixed neurons were incubated with blocking buffer (3% goat serum, 3% BSA in PBS-T (0.15% Triton-X100)) for 30 min at room temperature. After labeling with a primary antibody, cells were incubated with Alexa Fluor 488- or 568-conjugated secondary antibody. Aβ (6e10, Covance, 1:3000) and NeuN (abl77487, Abcam, 1:2000) were used as primary antibody.

Amyloid-beta (Aβ) [10] = assay: Anti-Aβ staining of brain tissue sections (choroid plexus cells) of treated mice; assay type: in vivo, C57BL/6 mice; details: orally administered for 6 weeks; vs vehicle (30% PEG400) mice; FIG. 9
Protocol: Amyloid-beta (Aβ) is a substance that is naturally produced and degraded In Vivo. Therefore, in the present invention, it was attempted to determine whether Amyloid-beta production was reduced in the compound of Example 124-treated mice.
C57BL/6 mice were purchased from Samtako bio Korea Co. Ltd (Osan, Korea.) Mice were housed in the room which offers a 12 hours light/dark cycle with a temperature of 20˜22° C. All experiments and animal care were approved by the Institutional Animal Care and Use Committee of Chonnam National University (Korea).
Mice were divided into a vehicle mice group and a drug-treated group, and then the vehicle (30% PEG400) or compound of Example 124 was orally administered for 6 weeks.
Mice were anesthetized with sevoflurane and perfused with PBS. After perfusion, the right hemisphere brain was fixed with 4% paraformaldehyde for one day. The frozen brains were sectioned at 30 um thickness. The tissue sections were blocked with 3% Goat serum and 3% BSA in cold PBS-T (0.15% Tx-100) for 30 min. Sections were then stained using anti-Aβ (ab5078p, millipore) 1:3000 in PBS. After 3 days of primary antibody labeling, sections were incubated with an Alexa Fluor 568 conjugated secondary antibody for 1 day. For each mouse, 8-10 tissue sections were quantified, and the Aβ intensity was measure at 15 choroid plexus cells. The measurement was done using Image J software.

## CO[C@@H](c1ccccc1Cl)[C@H](C)OC(N)=O [Example 124, 1-(2-chlorophenyl)-(S)-1-methoxypropyl-(S)-2-carbamate]
[1]
  pole test: time climbing down the pole / score: slightly attenuated
[2]; FIG. 2(A)
  stride length of forepaw: ameliorated
[2]; FIG. 2(B)
  stride length of hind paw: ameliorated
[3]
  rotenone-induced TH+ cell death (number of TH positive cells): significantly blocked
[4]
  tyrosine hydroxylase (TH) expression (TH/B-actin): increased
[5]
  phosphorylation of tau protein (p-Tau s262): decreased
[6]
  α-tubulin acetylation levels: increase
[7]
  accumulation of α-synuclein in the soma (p-α-synuclein inclusions in TH+ neurons): dramatically decreased
GFAP-positive astrocytes
  activation of astrocytes by rotenone (GFAP intensity): attenuated
Iba-1-positive microglia; FIG. 6(C-D)
  efficacy in microglia compared with astrocytes (relative Iba-1 and GFAP intensity): more dramatic and obvious in microglia than in astrocytes
Iba-1-positive microglia; rotenone 30 mg/kg orally, Example 124 40 mg/kg IP once a day for 35 days, FIG. 6
  activation of microglia by rotenone (Iba-1 intensity): attenuated
[8]
  amount of APP protein (APP/B-actin): decreased
Amyloid-beta (Aβ) [9]
  amount of amyloid-beta: decreased
Amyloid-beta (Aβ) [10]
  amount of endogenous amyloid-beta (Aβ intensity): reduced
